For 43 targets, thermal stability z-score results are on record in the supplement of paper PMC12463676, “Small-molecule dissolution of stress granules by redox modulation benefits ALS models” (Nature Chemical Biology, 2025).

Compound in one assay: O=[As]([O-])(O)O.[K+] [potassium arsenate]
As to the kind of experiment: thermal stability z-score vs DMSO; higher = more thermally stabilized by treatment. The note with it: HeLa; arsenate concentration 1 mM. As to the method:
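Cellular thermal proteome profiling in HeLa cells treated with 1 mM arsenate for 1 h (DMSO pretreatment), heated to ten temperatures (37-66.3 °C). Soluble protein was quantified by TMT mass spectrometry relative to DMSO controls; the thermal stability score was transformed to a z-score; mean of n = 3 experiments.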

Compound in another assay: NC(=O)CCCCC1CCSS1 [lipoamide]
Described as above. The following applies: HeLa, lipoamide concentration 100 µM. As to the method:
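Cellular thermal proteome profiling in HeLa cells. Cells were treated with 100 µM lipoamide for 1 h, with or without 1 mM arsenate for a further 1 h, then heated to ten temperatures (37-66.3 °C), and soluble protein was quantified by TMT mass spectrometry relative to 0.1% DMSO controls. The thermal stability score (sum of log2 fold changes minus the abundance score) was transformed to a z-score; mean of n = 3 experiments.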

[1] abbreviates: arsenate co-treatment: 1 mM arsenate 1 h.
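Also: each temperature applied for 3 min, abundance score taken as mean log2 fold change at the two lowest temperatures, z-score obtained by mean subtraction and division by SD.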

Sequence of UniProt Q04727 (Q04727 whole entry): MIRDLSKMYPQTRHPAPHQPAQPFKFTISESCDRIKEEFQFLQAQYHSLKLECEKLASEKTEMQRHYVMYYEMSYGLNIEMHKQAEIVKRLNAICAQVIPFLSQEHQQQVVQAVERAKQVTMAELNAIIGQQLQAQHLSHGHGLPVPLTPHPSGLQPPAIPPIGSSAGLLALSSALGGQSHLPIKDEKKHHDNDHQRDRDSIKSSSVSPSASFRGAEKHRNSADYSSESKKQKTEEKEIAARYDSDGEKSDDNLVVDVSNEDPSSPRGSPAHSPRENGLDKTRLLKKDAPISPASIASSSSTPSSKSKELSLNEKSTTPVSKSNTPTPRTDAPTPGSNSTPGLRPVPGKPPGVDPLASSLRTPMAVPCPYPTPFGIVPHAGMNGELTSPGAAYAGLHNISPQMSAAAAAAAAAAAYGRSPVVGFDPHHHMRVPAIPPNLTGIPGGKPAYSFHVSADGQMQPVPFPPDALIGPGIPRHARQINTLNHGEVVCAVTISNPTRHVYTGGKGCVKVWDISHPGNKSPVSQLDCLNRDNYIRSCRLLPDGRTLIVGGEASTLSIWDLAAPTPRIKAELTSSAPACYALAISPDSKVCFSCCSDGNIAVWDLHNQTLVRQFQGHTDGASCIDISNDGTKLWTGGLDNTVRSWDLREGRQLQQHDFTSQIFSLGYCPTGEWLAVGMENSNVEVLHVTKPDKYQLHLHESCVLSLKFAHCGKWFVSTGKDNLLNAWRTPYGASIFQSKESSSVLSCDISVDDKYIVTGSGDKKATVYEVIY
Sequence of UniProt P08574 (P08574 whole entry): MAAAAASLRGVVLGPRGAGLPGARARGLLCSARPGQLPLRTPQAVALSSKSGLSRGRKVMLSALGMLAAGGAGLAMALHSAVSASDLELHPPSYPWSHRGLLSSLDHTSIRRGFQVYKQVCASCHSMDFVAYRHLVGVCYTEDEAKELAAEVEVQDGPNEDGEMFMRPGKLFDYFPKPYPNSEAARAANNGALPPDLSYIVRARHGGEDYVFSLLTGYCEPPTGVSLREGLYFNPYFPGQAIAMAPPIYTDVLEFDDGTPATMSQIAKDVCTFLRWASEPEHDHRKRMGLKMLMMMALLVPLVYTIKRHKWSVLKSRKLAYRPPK
Sequence of UniProt Q86WP2 (Q86WP2 whole entry): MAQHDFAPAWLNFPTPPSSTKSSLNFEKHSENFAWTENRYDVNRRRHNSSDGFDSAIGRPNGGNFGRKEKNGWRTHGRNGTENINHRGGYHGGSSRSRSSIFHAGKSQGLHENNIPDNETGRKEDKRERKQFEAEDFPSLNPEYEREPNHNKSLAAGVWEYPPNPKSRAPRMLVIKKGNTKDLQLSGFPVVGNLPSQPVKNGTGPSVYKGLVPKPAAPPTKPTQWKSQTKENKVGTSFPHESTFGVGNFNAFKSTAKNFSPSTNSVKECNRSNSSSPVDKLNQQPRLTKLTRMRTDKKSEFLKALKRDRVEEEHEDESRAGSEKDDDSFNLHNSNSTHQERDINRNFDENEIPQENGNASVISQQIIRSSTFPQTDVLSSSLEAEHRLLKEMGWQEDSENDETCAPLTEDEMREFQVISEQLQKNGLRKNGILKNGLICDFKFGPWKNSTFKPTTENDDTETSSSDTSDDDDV
Sequence of UniProt Q13423 (Q13423 whole entry): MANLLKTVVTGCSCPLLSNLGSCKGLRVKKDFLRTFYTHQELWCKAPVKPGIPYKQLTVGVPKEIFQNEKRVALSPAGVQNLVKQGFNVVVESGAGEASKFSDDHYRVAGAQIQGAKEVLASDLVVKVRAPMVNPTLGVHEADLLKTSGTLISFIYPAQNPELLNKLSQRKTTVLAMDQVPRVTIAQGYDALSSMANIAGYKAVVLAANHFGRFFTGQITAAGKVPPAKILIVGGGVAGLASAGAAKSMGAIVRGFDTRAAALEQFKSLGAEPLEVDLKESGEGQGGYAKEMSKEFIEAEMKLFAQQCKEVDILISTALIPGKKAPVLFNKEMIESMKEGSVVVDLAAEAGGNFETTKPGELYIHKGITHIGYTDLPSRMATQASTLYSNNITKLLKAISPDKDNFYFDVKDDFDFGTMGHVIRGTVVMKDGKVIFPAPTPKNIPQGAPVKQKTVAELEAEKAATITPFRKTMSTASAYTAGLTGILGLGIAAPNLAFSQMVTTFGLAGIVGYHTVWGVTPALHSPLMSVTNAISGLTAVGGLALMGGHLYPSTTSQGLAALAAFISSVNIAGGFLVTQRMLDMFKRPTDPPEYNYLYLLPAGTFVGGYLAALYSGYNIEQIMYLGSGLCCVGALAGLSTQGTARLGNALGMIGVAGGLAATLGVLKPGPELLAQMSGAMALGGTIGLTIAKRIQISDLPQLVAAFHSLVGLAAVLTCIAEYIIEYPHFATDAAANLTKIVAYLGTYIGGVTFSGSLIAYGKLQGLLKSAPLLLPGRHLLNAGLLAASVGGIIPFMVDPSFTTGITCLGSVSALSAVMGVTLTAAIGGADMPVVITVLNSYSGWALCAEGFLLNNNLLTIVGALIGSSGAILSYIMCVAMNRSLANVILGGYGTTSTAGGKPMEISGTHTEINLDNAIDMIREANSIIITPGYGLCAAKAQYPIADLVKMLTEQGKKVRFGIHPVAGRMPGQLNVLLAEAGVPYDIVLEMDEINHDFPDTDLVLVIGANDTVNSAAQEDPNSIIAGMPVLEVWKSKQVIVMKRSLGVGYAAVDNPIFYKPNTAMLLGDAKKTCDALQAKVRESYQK
Sequence of UniProt Q96CN5 (Q96CN5 whole entry): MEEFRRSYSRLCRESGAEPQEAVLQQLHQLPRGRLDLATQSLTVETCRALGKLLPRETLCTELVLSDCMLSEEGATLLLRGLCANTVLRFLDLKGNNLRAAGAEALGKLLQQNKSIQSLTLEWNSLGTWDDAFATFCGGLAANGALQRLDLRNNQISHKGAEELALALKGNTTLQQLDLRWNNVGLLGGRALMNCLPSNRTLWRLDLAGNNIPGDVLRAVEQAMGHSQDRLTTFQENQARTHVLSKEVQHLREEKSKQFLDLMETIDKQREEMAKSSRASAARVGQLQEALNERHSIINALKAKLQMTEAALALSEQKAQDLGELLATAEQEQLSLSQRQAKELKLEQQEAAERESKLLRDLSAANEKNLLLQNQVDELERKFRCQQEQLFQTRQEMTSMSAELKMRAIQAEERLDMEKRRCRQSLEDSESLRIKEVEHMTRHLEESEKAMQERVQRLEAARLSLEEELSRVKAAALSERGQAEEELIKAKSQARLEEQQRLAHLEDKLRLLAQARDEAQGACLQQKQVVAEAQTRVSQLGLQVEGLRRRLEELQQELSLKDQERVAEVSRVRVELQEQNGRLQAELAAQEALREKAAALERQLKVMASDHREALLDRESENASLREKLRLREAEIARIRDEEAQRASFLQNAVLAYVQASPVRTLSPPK
Sequence of UniProt P54652 (P54652 whole entry): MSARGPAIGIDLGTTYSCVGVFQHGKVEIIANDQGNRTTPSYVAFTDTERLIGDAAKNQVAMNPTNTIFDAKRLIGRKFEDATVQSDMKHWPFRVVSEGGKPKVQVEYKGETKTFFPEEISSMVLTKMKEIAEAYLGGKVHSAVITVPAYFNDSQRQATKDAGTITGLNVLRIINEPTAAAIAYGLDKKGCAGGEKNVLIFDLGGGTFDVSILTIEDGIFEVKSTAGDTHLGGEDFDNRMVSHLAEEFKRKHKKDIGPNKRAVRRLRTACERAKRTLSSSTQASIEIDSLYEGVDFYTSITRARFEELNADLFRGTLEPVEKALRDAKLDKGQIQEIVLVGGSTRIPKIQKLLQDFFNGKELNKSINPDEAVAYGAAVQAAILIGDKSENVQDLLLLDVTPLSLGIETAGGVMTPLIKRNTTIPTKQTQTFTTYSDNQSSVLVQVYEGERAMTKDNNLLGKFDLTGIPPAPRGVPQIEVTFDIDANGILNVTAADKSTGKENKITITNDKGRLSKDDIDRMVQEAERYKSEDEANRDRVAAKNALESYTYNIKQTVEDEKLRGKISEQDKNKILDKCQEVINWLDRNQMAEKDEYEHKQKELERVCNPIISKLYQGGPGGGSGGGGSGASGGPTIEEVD
Sequence of UniProt O95159 (O95159 whole entry): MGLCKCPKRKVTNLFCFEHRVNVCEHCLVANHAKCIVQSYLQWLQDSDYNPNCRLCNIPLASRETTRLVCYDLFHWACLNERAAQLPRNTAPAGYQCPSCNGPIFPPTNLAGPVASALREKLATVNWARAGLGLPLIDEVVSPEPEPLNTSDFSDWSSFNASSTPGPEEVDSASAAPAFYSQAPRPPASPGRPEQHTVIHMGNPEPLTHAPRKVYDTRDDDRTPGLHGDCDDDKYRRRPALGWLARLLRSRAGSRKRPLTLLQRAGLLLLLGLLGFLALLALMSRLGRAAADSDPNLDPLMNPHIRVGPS
Sequence of UniProt Q9UI95 (Q9UI95 whole entry): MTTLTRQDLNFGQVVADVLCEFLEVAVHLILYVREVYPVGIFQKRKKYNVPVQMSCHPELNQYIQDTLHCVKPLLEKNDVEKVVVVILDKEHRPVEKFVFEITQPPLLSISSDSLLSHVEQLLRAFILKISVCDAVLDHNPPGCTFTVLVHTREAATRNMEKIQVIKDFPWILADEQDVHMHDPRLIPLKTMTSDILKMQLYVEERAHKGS
Sequence of UniProt P28072 (P28072 whole entry): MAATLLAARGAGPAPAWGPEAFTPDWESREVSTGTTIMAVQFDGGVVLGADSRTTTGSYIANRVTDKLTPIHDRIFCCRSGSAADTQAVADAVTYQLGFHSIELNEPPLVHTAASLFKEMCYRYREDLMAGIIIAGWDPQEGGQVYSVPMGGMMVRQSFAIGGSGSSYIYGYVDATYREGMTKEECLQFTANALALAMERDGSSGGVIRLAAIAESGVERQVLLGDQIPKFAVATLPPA
Sequence of UniProt O00559 (O00559 whole entry): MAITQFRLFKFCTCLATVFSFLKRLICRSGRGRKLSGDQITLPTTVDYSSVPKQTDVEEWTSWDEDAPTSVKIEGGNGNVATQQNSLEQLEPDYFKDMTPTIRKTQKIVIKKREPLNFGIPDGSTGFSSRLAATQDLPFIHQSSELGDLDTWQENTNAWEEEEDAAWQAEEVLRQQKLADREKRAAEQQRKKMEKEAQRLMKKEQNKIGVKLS

On to TRIO (UniProt O75962), for which the thermal stability z-score in the assay with potassium arsenate is 0.0185; with lipoamide (setting [1]), -0.939; with lipoamide (arsenate co-treatment: none) it was -0.335.
The matching figures for LRRC45 (UniProt Q96CN5): 0.0892, -0.00638 and 0.0708.
The matching figures for DISP1 (UniProt Q96F81): -1.07, 0.342 and 0.512.
The matching figures for DHX38 (UniProt Q92620): -0.406, -0.164 and 0.0335.
In the case of EIF1AD (UniProt Q8N9N8), the thermal stability z-score with potassium arsenate was 1.09; with lipoamide (setting [1]) it was 0.433; with lipoamide (arsenate co-treatment: none), 0.98.
The matching figures for PEX1 (UniProt O43933): -0.382, -0.254 and -0.723.
The matching figures for TFAP2A (UniProt P05549): 0.566, 0.831 and 0.868.
The corresponding values for GMEB1 (UniProt Q9Y692) are 0.19, -0.239 and -0.0658.
For PSMB6 (UniProt P28072), the thermal stability z-score was -0.414 with potassium arsenate, 0.174 in the assay with lipoamide (setting [1]) and 0.262 with lipoamide (arsenate co-treatment: none).
The corresponding values for RPL17 (UniProt P18621) are -0.755, 0.743 and 0.704.
In the case of EVI5 (UniProt O60447), the thermal stability z-score is 0.704 with potassium arsenate, -0.272 with lipoamide (setting [1]) and 0.322 with lipoamide (arsenate co-treatment: none).
As for H1FX (UniProt Q92522), the figures for the thermal stability z-score in the assay with potassium arsenate, with lipoamide (setting [1]) and with lipoamide (arsenate co-treatment: none) were -1.7, -0.468 and -0.893, respectively.
The matching figures for SEC61A1 (UniProt P61619): 0.55, 1.11 and 0.235.
The matching figures for BAT3|BAG6: 0.518, -0.102 and -0.0326.
The corresponding values for RAD54B (UniProt Q9Y620) are -0.753, -0.335 and -0.346.
Regarding ABCB7 (UniProt O75027), the thermal stability z-score worked out at 0.456 in the assay with potassium arsenate, 0.117 with lipoamide (setting [1]) and 0.0859 with lipoamide (arsenate co-treatment: none).
EBAG9 (UniProt O00559): the results for the thermal stability z-score with potassium arsenate, with lipoamide (setting [1]) and with lipoamide (arsenate co-treatment: none) were 0.749, 1.73 and 1.25, respectively.
The corresponding values for LIMS1 (UniProt P48059) are -2.08, -0.604 and -0.589.
The matching figures for SORBS3 (UniProt O60504): -0.323, -0.117 and 0.0779.
In the case of USP16 (UniProt Q9Y5T5), the thermal stability z-score is 0.229 with potassium arsenate, -0.544 with lipoamide (setting [1]) and -0.649 with lipoamide (arsenate co-treatment: none).
The corresponding values for SRSF4 (UniProt Q08170) are -0.0178, 1.95 and 1.28.
The corresponding values for NRDE2 (UniProt Q9H7Z3) are -0.184, 0.0849 and 0.0451.
On to NNT (UniProt Q13423), for which the results for the thermal stability z-score in the assay with potassium arsenate, in the assay with lipoamide (setting [1]) and in the assay with lipoamide (arsenate co-treatment: none) were 0.0461, 0.176 and 0.166, respectively.
Turning to ASUN (UniProt Q9NVM9), the thermal stability z-score in the assay with potassium arsenate was determined as 0.906; in the assay with lipoamide (setting [1]), 0.368; in the assay with lipoamide (arsenate co-treatment: none) it was 0.404.
The matching figures for RBM4 (UniProt Q9BWF3): 0.216, 0.135 and 0.129.
As for KLHDC3 (UniProt Q9BQ90), the thermal stability z-score is 1.05 with potassium arsenate, 0.45 with lipoamide (setting [1]) and -0.351 in the assay with lipoamide (arsenate co-treatment: none).
The matching figures for GOLGA3 (UniProt Q08378): 0.587, 0.291 and 0.128.
The corresponding values for GRWD1 (UniProt Q9BQ67) are -0.541, 0.304 and 0.0318.
Take ALDH4A1 (UniProt P30038): the thermal stability z-score with potassium arsenate was 1.19; with lipoamide (setting [1]) it was -0.59; with lipoamide (arsenate co-treatment: none), -0.14.
Turning to MAD2L2 (UniProt Q9UI95), the figures for the thermal stability z-score with potassium arsenate, with lipoamide (setting [1]) and with lipoamide (arsenate co-treatment: none) were -0.211, -0.137 and 0.037, respectively.
The corresponding values for CLASRP (UniProt Q8N2M8) are 0.14, -0.693 and -0.133.
The matching figures for TLE4 (UniProt Q04727): 0.289, -0.201 and 0.36.
The corresponding values for GPBP1 (UniProt Q86WP2) are -0.111, -0.514 and -0.441.
As to CYC1 (UniProt P08574), the thermal stability z-score is -1.31 with potassium arsenate, 0.0943 in the assay with lipoamide (setting [1]) and -0.0471 in the assay with lipoamide (arsenate co-treatment: none).
The corresponding values for ZFPL1 (UniProt O95159) are -1.02, -0.552 and -1.06.
The matching figures for FDXR (UniProt P22570): 0.404, -0.331 and -0.428.
Regarding CNNM2 (UniProt Q9H8M5), the thermal stability z-score was -0.152 with potassium arsenate, 0.397 in the assay with lipoamide (setting [1]) and 0.656 in the assay with lipoamide (arsenate co-treatment: none).
On to MRPL27 (UniProt Q9P0M9), for which the figures for the thermal stability z-score with potassium arsenate, with lipoamide (setting [1]) and with lipoamide (arsenate co-treatment: none) were -0.0764, -0.0242 and 0.00566, respectively.
As for PACS1 (UniProt Q6VY07), the values for the thermal stability z-score with potassium arsenate, with lipoamide (setting [1]) and with lipoamide (arsenate co-treatment: none) were 0.404, -0.0876 and 0.134, respectively.
The corresponding values for MGRN1 (UniProt O60291) are -0.181, -0.792 and -0.153.
The matching figures for HSPA2 (UniProt P54652): 0.26, -0.295 and 0.552.
Consider GK (UniProt P32189), for which the figures for the thermal stability z-score with potassium arsenate, with lipoamide (setting [1]) and with lipoamide (arsenate co-treatment: none) were 0.46, 0.371 and 0.195, respectively.
The corresponding values for PSEN2 (UniProt P49810) are -1.19, -0.815 and -1.79.
